We go through 1 compound from US20090211893A1, “Photo-Activatable Amino Acids” (priority 2005, published 2009).

The test system of assay [1] is Insig-1 and PGRMC1. Kind of assay: Photo-crosslinking of Insig-1 and PGRMC1 with immunoprecipitation and western blotting. The assay is classed as cell-based, human. The note with it: COS7 cells, UV-irradiated, IP anti-HA, blot anti-myc. From the text:
Cells were UV-irradiated or not irradiated as indicted, lysed and subjected to immunoprecipitation (IP) with anti-HA or anti-myc antibodies as indicated. Immunoprecipitated proteins were separated by SDS-PAGE and probed (WB) for the presence of cross-links with anti-myc antibody or anti-HA antibody as indicated. The small difference in apparent molecular weight of the cross-link is due to different percentage of SDS-PAGE gels used. The presence of uncrosslinked Insig-1 in the left lanes indicates non-covalent co-immunoprecipitation. The strong band in lanes 3 and 4 (IgG-HC) is crossreacting IgG heavy chain.
COS7 (monkey kidney) cells were grown in DMEM high glucose (Gibco no. 11995; with L-glutamine and Na-pyruvate)+10% FCS. […]
The methods of the invention have been applied to the study of protein-protein interactions between membrane proteins. […] To detect the cross-linked proteins, detergent extracts were immunoprecipitated for PGRMC1 with anti-HA antibody and precipitates analyzed for Insig-1 by western blotting with anti-myc antibody. If cells were grown in the absence of photo-Met, only a small amount of co-immunoprecipitated Insig-1, but no cross-linked band was detected (FIG. 6a, lane 2). […] An identical band was detected using the inverted order of detection, i.e. immunoprecipitation with anti-myc followed by blotting with anti-HA antibody (FIG. 6a, lane 3). […]

In assay [2] the test system is COS7 cells. Kind of assay: Incorporation of [1-14C]photo-Met and [3H]Phe into newly synthesized protein. The class given is cell-based, monkey. How it is done: Cells were washed 6 times with PBS and lysed in 0.5% Triton X-100, 0.2% sodium deoxycholate. Aggregated DNA was removed, protein was precipitated^43, the pellet was redissolved in 0.3 ml 0.5% SDS and subjected to a second round of precipitation. […] The dried pellet was redissolved and processed for scintillation counting (data of Table 1 and FIG. 4b) or processed as follows for amino acid analysis (FIG. 2b): the pellet was dissolved in 600 µl 50 mM NH4HCO3, 0.5% SDS, 3 mM CaCl2 containing 0.25 mg pronase (Roche) followed by incubation at 37° C. for 20 h. The sample was lyophilized, dissolved in 600 μl of 7 N HCl containing 4 mg of glutamic acid and 6 mg of photo-Met and heated to 70° C. for 24 h. A Dowex 50WX8 column (1.6×24 cm) was prepared^18 and equilibrated with 0.1 M sodium citrate pH 3.8. The sample was concentrated to 50 μl in a speed-vak, diluted to 1 ml with 0.1 M sodium citrate pH 3.8, and loaded onto the column. The column was eluted at 24° C. at a flow rate of 20 ml/h with 70 ml 0.1 M sodium citrate pH 3.8, 26 ml 0.1 M sodium citrate pH 4.3 and 100 ml of 0.1 M sodium citrate pH 4.5. Fractions of 3 ml were collected and assayed for absorbance at 350 nm, radioactivity by scintillation counting, and amino groups by the fluorescamine method^44.
To decrease competition for activation by tRNA synthetases, media devoid of the structurally related amino acids Leu and Met (LM-2) or, for some experiments, devoid of Leu, Met, Ile and Val (LM-4) were used. Proteins incorporated radioactivity as shown by autoradiography after separation by SDS-PAGE (FIG. 2a, lane 3). […] 88% of the radioactivity in the labeled proteins was intact [1-^14C]photo-Met (FIG. 2b, photo-Met). A small peak eluting slightly earlier than glutamic acid (FIG. 2 B, Glu) contained 7% of the radioactivity. This peak was also observed if free [1-^14C]photo-Met was heated with HCl under the conditions of the hydrolysis (data not shown) and therefore represents a product of thermal decomposition of the amino acid. Under the conditions employed, radioactivity originating from degradation/re-integration would be expected to appear as aspartate and glutamate (oxidative release of [^14C]CO2, metabolism via pyruvate carboxylase, citric acid cycle and transamination to Gln and Asn that will be hydrolyzed to Glu and Asp by hot HCl). However, no radioactivity was incorporated via this pathway. We conclude that at least 95% of incorporated radioactivity represents intact [1-^14C]photo-Met. To obtain quantitative data on the frequency of incorporation of photo-Met into newly synthesized protein, we performed co-labeling with [1-^14C]photo-Met and [^3H]Phe. […] Two in three hundred amino acids in newly synthesized protein will be photo-Met.

For `CC1(CCC(N)C(=O)O)N=N1` [photo-Met, L-2-amino-5,5′-azi-hexanoic acid], the “Insig-1×PGRMC1 cross-linked band” value in assay [1] is recorded as “a strong band appeared”. Besides, the “frequency of substitution of photo-Met for Met” value in assay [2] was found to be 35%.
